Measured values as given in publication PMC7351026, “Serum Half-Lives for Short- and Long-Chain Perfluoroalkyl Acids after Ceasing Exposure from Drinking Water Contaminated by Firefighting Foam” (Environmental Health Perspectives, 2020).

Experiments:
[1] = Population average serum elimination rate and half-life (linear mixed model, one compartment, first-order); conditions: population average
Experimental: (§1) Serum PFAS concentrations were log-transformed. Time was calculated as the elapsed days between supply of clean bottled water and […] blood sampling. We assumed one compartment, first-order elimination kinetics. In this kinetic model, the body is considered as one homogeneous volume in which mixing is instantaneous and from which PFAS could be absorbed, transferred, and eliminated according to the rate of elimination that is proportional to the concentration of PFAS in the body. Two methods were used to estimate serum elimination rate constant (k) and half-life for each PFAS:
Briefly, in the linear mixed model In Cij=αi+tijβ+Xiβ′+εij, Cij is the serum concentration of PFAS for individual i at sampling round j; αi is the subject-specific intercept (random intercept); tij is the time; β is the average slope; Xi is a vector of fixed covariates for individual i; β′ stands for the fixed effect coefficients; and εij is the random error term. We modified the model by excluding the subject-specific slope (random slope) due to a failure to converge after inclusion, which may be due to the limited number of study subjects. The negative value of the average slope ( −β ) is the population average k, and average half-life is calculated as ln2/k .
In the linear mixed model, we included only age and sex as covariates. We based covariate selection on factors that could conceivably confound the PFAS half-life estimation. Working task, duration of employment, number of glasses of water per day, blood donation, and pregnancy before mitigation of PFAS exposure from drinking water can influence the initial serum levels but would not be expected to influence the PFAS half-life.
A sensitivity analysis was performed using the same linear mixed model but with Cij as the serum levels after subtracting general background levels (using the median levels obtained from the nonexposed reference population). If the serum PFAS levels after subtraction were lower than the half of the background levels, they were replaced with half of the background levels.

[2] = Individual serum elimination rate and half-life (linear regression per employee); conditions: individual estimate;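 as to HL (half-life): half-life in years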
Experimental: as §1
Method 2: For estimation of individual k, linear regression was used to derive the slope ( β ) of the logarithm of serum concentrations vs. time for each employee. The negative value of the slope ( −β ) for each individual was equivalent to the individual k, and individual serum elimination half-life was calculated as ln2/k for each PFAS. If β was positive (i.e., PFAS concentrations tended to increase over the five samplings), the half-life was not calculated.

[3] = PFAS levels in urine samples of airport employees, specific-gravity adjusted (LC/MS/MS); format: in vivo, human
Experimental: Only one employee provided a single urine sample. […] All employees provided written informed consent.
The samples were thawed 1–2 h, then mixed by vortex shaker and manual turning. […] For the urine samples, 50μL urine was mixed with 25μL of methanol and 25μL of a 50% acetonitrile solution containing isotopically labeled internal standards (see Table S1). Then samples were shaken vigorously for 30 min and centrifuged at 3,000×g for 10 min at room temperature.
Aliquots of 20μL of the sample were analyzed using LC/MS/MS. […] The analysis was performed in negative ion mode. The ion source temperature was at 350°C.
(§2) Urinary PFAS concentrations were specific-gravity adjusted. The ratio of urine and serum concentration for each PFAS (urine/serum ratio) at each sampling was calculated based on PFAS concentrations in paired serum and urine samples from 17 employees. Then the personal average urine/serum ratio was calculated using the mean value of repeated samplings for each employee.

[4] = Urine/serum ratio in paired samples; format: in vivo, human; conditions: mean of four paired samplings per subject, 17 airport employees
Experimental: as §2

[5] = model with original serum levels, age and sex as covariates
[6] = model with serum levels after subtraction of background exposure (sensitivity analysis)
[7] = 2nd sampling (October 2018), count 17
[8] = 3rd sampling (November, 2018), count 16
[9] = 4th sampling (December 2018), count 14
[10] = 5th sampling (January 2019), count 12

O=S(=O)(O)C(F)(C(F)(F)F)C(F)(F)C(F)(F)C(F)(F)C(F)(F)C(F)(F)C(F)(F)F (centres unmarked) [1m-PFOS, perfluoro-1-methylheptanesulfonate]
Constant elimination rate (95% CI) [1, 5]: 0.55 (0.09, 1.01) yearly | Half-life (95% CI) [1, 5]: 1.27 (0.69, 7.64) year | Constant elimination rate (95% CI) [1, 6]: 0.75 (0.15, 1.36) yearly | Half-life (95% CI) [1, 6]: 0.92 (0.51, 4.77) year | Elimination rate ([2]; subject 1, 5 samples): 0.3 yearly | HL (half-life) ([2]; subject 1, 5 samples): 2.0 year | Elimination rate ([2]; subject 2, 5 samples): 0.1 yearly | HL (half-life) ([2]; subject 2, 5 samples): 5.4 year | Elimination rate ([2]; subject 3, 5 samples): 0.8 yearly | HL (half-life) ([2]; subject 3, 5 samples): 0.9 year | Elimination rate ([2]; subject 4, 5 samples): −0.1 yearly | Elimination rate ([2]; subject 5, 5 samples): 0.1 yearly | HL (half-life) ([2]; subject 5, 5 samples): 5.9 year | Elimination rate ([2]; subject 6, 4 samples): −0.1 yearly | Elimination rate ([2]; subject 7, 5 samples): −0.3 yearly | Elimination rate ([2]; subject 8, 5 samples): −0.5 yearly | Elimination rate ([2]; subject 9, 5 samples): −0.3 yearly | Elimination rate ([2]; subject 10, 5 samples): 0.6 yearly | HL (half-life) ([2]; subject 10, 5 samples): 1.2 year | Elimination rate ([2]; subject 11, 5 samples): 1.9 yearly | HL (half-life) ([2]; subject 11, 5 samples): 0.4 year | Elimination rate ([2]; subject 12, 5 samples): 0.03 yearly | Elimination rate ([2]; subject 13, 5 samples): 1.1 yearly | HL (half-life) ([2]; subject 13, 5 samples): 0.6 year | Elimination rate ([2]; subject 14, 4 samples): 1.7 yearly | HL (half-life) ([2]; subject 14, 4 samples): 0.4 year | Elimination rate ([2]; subject 15, 5 samples): 1.3 yearly | HL (half-life) ([2]; subject 15, 5 samples): 0.6 year | Elimination rate ([2]; subject 16, 5 samples): −0.3 yearly | Elimination rate ([2]; subject 17, 5 samples): 2.2 yearly | HL (half-life) ([2]; subject 17, 5 samples): 0.3 year

Perfluoro-2/6-methylheptanesulfonate [2/6m-PFOS]
Specific gravity adjusted urinary level, 25 percentile [3, 7]: < LOD | Specific gravity adjusted urinary level, 75 percentile [3, 7]: < LOD | Specific gravity adjusted urinary level, Max [3, 7]: < LOD | Specific gravity adjusted urinary level, Median [3, 7]: < LOD | Specific gravity adjusted urinary level, Min [3, 7]: < LOD | Specific gravity adjusted urinary level, 25 percentile [3, 8]: < LOD | Specific gravity adjusted urinary level, 75 percentile [3, 8]: < LOD | Specific gravity adjusted urinary level, Max [3, 8]: 0.04 ng/mL | Specific gravity adjusted urinary level, Median [3, 8]: < LOD | Specific gravity adjusted urinary level, Min [3, 8]: < LOD | Specific gravity adjusted urinary level, 25 percentile [3, 9]: < LOD | Specific gravity adjusted urinary level, 75 percentile [3, 9]: < LOD | Specific gravity adjusted urinary level, Max [3, 9]: 1.60 ng/mL | Specific gravity adjusted urinary level, Median [3, 9]: < LOD | Specific gravity adjusted urinary level, Min [3, 9]: < LOD | Specific gravity adjusted urinary level, 25 percentile [3, 10]: < LOD | Specific gravity adjusted urinary level, 75 percentile [3, 10]: < LOD | Specific gravity adjusted urinary level, Max [3, 10]: 0.03 ng/mL | Specific gravity adjusted urinary level, Median [3, 10]: < LOD | Specific gravity adjusted urinary level, Min [3, 10]: < LOD | Constant elimination rate (95% CI) [1, 5]: 0.66 (0.29, 1.04) yearly | Half-life (95% CI) [1, 5]: 1.04 (0.67, 2.42) year | Constant elimination rate (95% CI) [1, 6]: 0.95 (0.39, 1.5) yearly | Half-life (95% CI) [1, 6]: 0.73 (0.46, 1.76) year | Elimination rate ([2]; subject 1, 5 samples): −0.2 yearly | Elimination rate ([2]; subject 2, 5 samples): 0.5 yearly | HL (half-life) ([2]; subject 2, 5 samples): 1.3 year | Elimination rate ([2]; subject 3, 5 samples): 0.7 yearly | HL (half-life) ([2]; subject 3, 5 samples): 1.0 year | Elimination rate ([2]; subject 4, 5 samples): 0.0 yearly | Elimination rate ([2]; subject 5, 5 samples): 0.4 yearly | HL (half-life) ([2]; subject 5, 5 samples): 1.6 year | Elimination rate ([2]; subject 6, 4 samples): 0.4 yearly | HL (half-life) ([2]; subject 6, 4 samples): 1.7 year | Elimination rate ([2]; subject 7, 5 samples): 1.1 yearly | HL (half-life) ([2]; subject 7, 5 samples): 0.6 year | Elimination rate ([2]; subject 8, 5 samples): −0.2 yearly | Elimination rate ([2]; subject 9, 5 samples): 0.2 yearly | HL (half-life) ([2]; subject 9, 5 samples): 4.2 year | Elimination rate ([2]; subject 10, 5 samples): −0.007 yearly | Elimination rate ([2]; subject 11, 5 samples): 1.7 yearly | HL (half-life) ([2]; subject 11, 5 samples): 0.4 year | Elimination rate ([2]; subject 12, 5 samples): 1.7 yearly | HL (half-life) ([2]; subject 12, 5 samples): 0.4 year | Elimination rate ([2]; subject 13, 5 samples): 1.0 yearly | HL (half-life) ([2]; subject 13, 5 samples): 0.7 year | Elimination rate ([2]; subject 14, 4 samples): 1.5 yearly | HL (half-life) ([2]; subject 14, 4 samples): 0.5 year | Elimination rate ([2]; subject 15, 5 samples): 1.2 yearly | HL (half-life) ([2]; subject 15, 5 samples): 0.6 year | Elimination rate ([2]; subject 16, 5 samples): −0.1 yearly | Elimination rate ([2]; subject 17, 5 samples): 1.9 yearly | HL (half-life) ([2]; subject 17, 5 samples): 0.4 year | Personal average urine/serum ratio, median (range) [4]: 0.0051 (0.00059–0.032)

perfluoro-3/4/5-methylheptanesulfonate [3/4/5m-PFOS]
Constant elimination rate (95% CI) [1, 5]: 0.64 (0.18, 1.1) yearly | Half-life (95% CI) [1, 5]: 1.09 (0.63, 3.96) year | Constant elimination rate (95% CI) [1, 6]: 0.83 (0.24, 1.42) yearly | Half-life (95% CI) [1, 6]: 0.83 (0.49, 2.84) year | Elimination rate ([2]; subject 1, 5 samples): 0.4 yearly | HL (half-life) ([2]; subject 1, 5 samples): 1.9 year | Elimination rate ([2]; subject 2, 5 samples): 0.3 yearly | HL (half-life) ([2]; subject 2, 5 samples): 2.1 year | Elimination rate ([2]; subject 3, 5 samples): 0.4 yearly | HL (half-life) ([2]; subject 3, 5 samples): 1.7 year | Elimination rate ([2]; subject 4, 5 samples): 0.1 yearly | HL (half-life) ([2]; subject 4, 5 samples): 11 year | Elimination rate ([2]; subject 5, 5 samples): 0.2 yearly | HL (half-life) ([2]; subject 5, 5 samples): 3.1 year | Elimination rate ([2]; subject 6, 4 samples): 0.04 yearly | HL (half-life) ([2]; subject 6, 4 samples): 19 year | Elimination rate ([2]; subject 7, 5 samples): 0.1 yearly | HL (half-life) ([2]; subject 7, 5 samples): 4.8 year | Elimination rate ([2]; subject 8, 5 samples): −0.2 yearly | Elimination rate ([2]; subject 9, 5 samples): 0.1 yearly | HL (half-life) ([2]; subject 9, 5 samples): 10 year | Elimination rate ([2]; subject 10, 5 samples): 0.2 yearly | HL (half-life) ([2]; subject 10, 5 samples): 4.0 year | Elimination rate ([2]; subject 11, 5 samples): 2.0 yearly | HL (half-life) ([2]; subject 11, 5 samples): 0.4 year | Elimination rate ([2]; subject 12, 5 samples): 0.5 yearly | HL (half-life) ([2]; subject 12, 5 samples): 1.3 year | Elimination rate ([2]; subject 13, 5 samples): 0.5 yearly | HL (half-life) ([2]; subject 13, 5 samples): 1.5 year | Elimination rate ([2]; subject 14, 4 samples): 0.3 yearly | HL (half-life) ([2]; subject 14, 4 samples): 2.0 year | Elimination rate ([2]; subject 15, 5 samples): 2.2 yearly | HL (half-life) ([2]; subject 15, 5 samples): 0.3 year | Elimination rate ([2]; subject 16, 5 samples): 0.3 yearly | HL (half-life) ([2]; subject 16, 5 samples): 2.0 year | Elimination rate ([2]; subject 17, 5 samples): 1.9 yearly | HL (half-life) ([2]; subject 17, 5 samples): 0.4 year
